In ChEMBL document CHEMBL3044907, “Sensitivity of Fusarium verticillioides isolates from rice to a novel cyanoacrylate fungicide” (Crop Prot, 2012):

Tests used:
Fusarium verticillioides [1] = experiment: (§1) Fungicidal activity against Fusarium verticilliodes isolate YZ04 in rice seeds harvested from bakane diseased plants assessed as number of seedlings abnormally elongated or exhibiting symptoms of damping-off at 8.33 ug/ml at 30 degC incubated for 72 hr measured after 3 days under greenhouse trials (reference value: 44.2%); type: functional
Fusarium verticillioides [2] = experiment: as §1, with “JS02” for “YZ04”, “6.25” for “8.33”, “24.9%)” for “44.2%)”; type: functional
Fusarium verticillioides [3] = experiment: as §1, with “N02” for “YZ04”, “12.5” for “8.33”, “41.2%)” for “44.2%)”; type: functional
Fusarium verticillioides [4] = experiment: as §1, with “YZ11” for “YZ04”, “6.25” for “8.33”, “33.7%)” for “44.2%)”; type: functional
Fusarium verticillioides [5] = experiment: as §1, with “N03” for “YZ04”, “12.5” for “8.33”, “36.1%)” for “44.2%)”; type: functional
Fusarium verticillioides [6] = experiment: as §1, with “JS02” for “YZ04”, “25” for “8.33”, “24.9%)” for “44.2%)”; type: functional
Fusarium verticillioides [7] = experiment: as §1, with “N06” for “YZ04”, “25” for “8.33”, “9.6%)” for “44.2%)”; type: functional
Fusarium verticillioides [8] = experiment: as §1, with “JS02” for “YZ04”, “12.5” for “8.33”, “24.9%)” for “44.2%)”; type: functional
Fusarium verticillioides [9] = experiment: as §1, with “YZ08” for “YZ04”, “12.5” for “8.33”, “19.8%)” for “44.2%)”; type: functional
Fusarium verticillioides [10] = experiment: as §1, with “YZ06” for “YZ04”, “12.5” for “8.33”, “45.3%)” for “44.2%)”; type: functional
Fusarium verticillioides [11] = experiment: as §1, with “JS07” for “YZ04”, “12.5” for “8.33”, “33.8%)” for “44.2%)”; type: functional
Fusarium verticillioides [12] = experiment: as §1, with “JS07” for “YZ04”, “25” for “8.33”, “33.8%)” for “44.2%)”; type: functional
Fusarium verticillioides [13] = experiment: as §1, with “JS05” for “YZ04”, “12.5” for “8.33”, “36.4%)” for “44.2%)”; type: functional
Fusarium verticillioides [14] = experiment: as §1, with “YZ09” for “YZ04”, “6.25” for “8.33”, “17.5%)” for “44.2%)”; type: functional
Fusarium verticillioides [15] = experiment: as §1, with “N05” for “YZ04”, “12.5” for “8.33”, “6.2%)” for “44.2%)”; type: functional
Fusarium verticillioides [16] = experiment: as §1, with “N01” for “YZ04”, “27.4%)” for “44.2%)”; type: functional
Fusarium verticillioides [17] = experiment: as §1, with “JS01” for “YZ04”, “12.5” for “8.33”, “32.5%)” for “44.2%)”; type: functional
Fusarium verticillioides [18] = experiment: as §1, with “JS04” for “YZ04”, “16.2%)” for “44.2%)”; type: functional
Fusarium verticillioides [19] = experiment: as §1, with “YZ10” for “YZ04”, “25” for “8.33”, “49.2%)” for “44.2%)”; type: functional
Oryza sativa = experiment: Effect on germination of healthy Oryza sativa (rice) seed cultivar Liangyou 6326 at 6.25 to 25 ug/ml at 25 degC after 72 hr; type: ADME, organism-based; conditions: in vivo
Fusarium verticillioides [20] = experiment: as §1, with “JS07” for “YZ04”, “33.8%)” for “44.2%)”; type: functional
Fusarium verticillioides [21] = experiment: as §1, with “YZ05” for “YZ04”, “6.25” for “8.33”, “33.3%)” for “44.2%)”; type: functional
Fusarium verticillioides [22] = experiment: as §1, with “YZ08” for “YZ04”, “19.8%)” for “44.2%)”; type: functional
Fusarium verticillioides [23] = experiment: as §1, with “YZ09” for “YZ04”, “12.5” for “8.33”, “17.5%)” for “44.2%)”; type: functional
Fusarium verticillioides [24] = experiment: as §1, with “JS09” for “YZ04”, “32.6%)” for “44.2%)”; type: functional
Fusarium verticillioides [25] = experiment: as §1, with “YZ03” for “YZ04”, “6.25” for “8.33”, “21.3%)” for “44.2%)”; type: functional
Fusarium verticillioides [26] = experiment: as §1, with “YZ02” for “YZ04”, “12.5” for “8.33”, “29.8%)” for “44.2%)”; type: functional
Fusarium verticillioides [27] = experiment: as §1, with “YZ26” for “YZ04”, “12.5” for “8.33”, “49.3%)” for “44.2%)”; type: functional
Fusarium verticillioides [28] = experiment: as §1, with “N05” for “YZ04”, “25” for “8.33”, “6.2%)” for “44.2%)”; type: functional
Fusarium verticillioides [29] = experiment: as §1, with “YZ08” for “YZ04”, “25” for “8.33”, “19.8%)” for “44.2%)”; type: functional
Fusarium verticillioides [30] = experiment: as §1, with “YZ06” for “YZ04”, “25” for “8.33”, “45.3%)” for “44.2%)”; type: functional
Fusarium verticillioides [31] = experiment: as §1, with “N03” for “YZ04”, “6.25” for “8.33”, “36.1%)” for “44.2%)”; type: functional
Fusarium verticillioides [32] = experiment: as §1, with “JS06” for “YZ04”, “25.2%)” for “44.2%)”; type: functional
Fusarium verticillioides [33] = experiment: as §1, with “JS05” for “YZ04”, “25” for “8.33”, “36.4%)” for “44.2%)”; type: functional
Fusarium verticillioides [34] = experiment: as §1, with “YZ07” for “YZ04”, “6.25” for “8.33”, “43.2%)” for “44.2%)”; type: functional
Fusarium verticillioides [35] = experiment: as §1, with “6.25” for “8.33”; type: functional

Question: Which results are given for CCOC(=O)/C(C#N)=C(/N)c1ccccc1?
Answer: Activity (Fusarium verticillioides [1]): 0%; Activity (Fusarium verticillioides [2]): 2%; Activity (Fusarium verticillioides [3]): 0%; Activity (Fusarium verticillioides [4]): 4.5%; Activity (Fusarium verticillioides [5]): 0%; Activity (Fusarium verticillioides [6]): 0%; Activity (Fusarium verticillioides [7]): 0%; Activity (Fusarium verticillioides [8]): 0%; Activity (Fusarium verticillioides [9]): 0%; Activity (Fusarium verticillioides [10]): 0%; Activity (Fusarium verticillioides [11]): 0%; Activity (Fusarium verticillioides [12]): 0%; Activity (Fusarium verticillioides [13]): 0%; Activity (Fusarium verticillioides [14]): 2.8%; Activity (Fusarium verticillioides [15]): 0%; Activity (Fusarium verticillioides [16]): 0%; Activity (Fusarium verticillioides [17]): 0%; Activity (Fusarium verticillioides [18]): 1%; Activity (Fusarium verticillioides [19]): 0%; Activity (Oryza sativa): Non-toxic; Activity (Fusarium verticillioides [20]): 0%; Activity (Fusarium verticillioides [21]): 0.5%; Activity (Fusarium verticillioides [22]): 0%; Activity (Fusarium verticillioides [23]): 0%; Activity (Fusarium verticillioides [24]): 1.2%; Activity (Fusarium verticillioides [25]): 2%; Activity (Fusarium verticillioides [26]): 0%; Activity (Fusarium verticillioides [27]): 0%; Activity (Fusarium verticillioides [28]): 0%; Activity (Fusarium verticillioides [29]): 0%; Activity (Fusarium verticillioides [30]): 0%; Activity (Fusarium verticillioides [31]): 0.5%; Activity (Fusarium verticillioides [32]): 0%; Activity (Fusarium verticillioides [33]): 0%; Activity (Fusarium verticillioides [34]): 1.6%; Activity (Fusarium verticillioides [35]): 1.3%
